According to ChEMBL document CHEMBL5465560, “Selectivity Literature for EUbOPEN Chemogenomic Library” (2024):
Blank lines part the entries; values can stand above or below the compound they belong to.

Key:
D(2) dopamine receptor = D(2) dopamine receptor (Homo sapiens, UniProt P14416); assay: Selectivity interaction (GPCR panel (PDSP screen)) EUB0001079a DRD2; settings: at 10 µM
[1] = molecular target: T1, Ephrin type-A receptor 6 (Homo sapiens) (UniProt Q9UF33); assay: Selectivity interaction (KinomeScan (DiscoverX)) EUB0000607a EPHA6; settings: at 10 µM
T1 sequence (whole entry): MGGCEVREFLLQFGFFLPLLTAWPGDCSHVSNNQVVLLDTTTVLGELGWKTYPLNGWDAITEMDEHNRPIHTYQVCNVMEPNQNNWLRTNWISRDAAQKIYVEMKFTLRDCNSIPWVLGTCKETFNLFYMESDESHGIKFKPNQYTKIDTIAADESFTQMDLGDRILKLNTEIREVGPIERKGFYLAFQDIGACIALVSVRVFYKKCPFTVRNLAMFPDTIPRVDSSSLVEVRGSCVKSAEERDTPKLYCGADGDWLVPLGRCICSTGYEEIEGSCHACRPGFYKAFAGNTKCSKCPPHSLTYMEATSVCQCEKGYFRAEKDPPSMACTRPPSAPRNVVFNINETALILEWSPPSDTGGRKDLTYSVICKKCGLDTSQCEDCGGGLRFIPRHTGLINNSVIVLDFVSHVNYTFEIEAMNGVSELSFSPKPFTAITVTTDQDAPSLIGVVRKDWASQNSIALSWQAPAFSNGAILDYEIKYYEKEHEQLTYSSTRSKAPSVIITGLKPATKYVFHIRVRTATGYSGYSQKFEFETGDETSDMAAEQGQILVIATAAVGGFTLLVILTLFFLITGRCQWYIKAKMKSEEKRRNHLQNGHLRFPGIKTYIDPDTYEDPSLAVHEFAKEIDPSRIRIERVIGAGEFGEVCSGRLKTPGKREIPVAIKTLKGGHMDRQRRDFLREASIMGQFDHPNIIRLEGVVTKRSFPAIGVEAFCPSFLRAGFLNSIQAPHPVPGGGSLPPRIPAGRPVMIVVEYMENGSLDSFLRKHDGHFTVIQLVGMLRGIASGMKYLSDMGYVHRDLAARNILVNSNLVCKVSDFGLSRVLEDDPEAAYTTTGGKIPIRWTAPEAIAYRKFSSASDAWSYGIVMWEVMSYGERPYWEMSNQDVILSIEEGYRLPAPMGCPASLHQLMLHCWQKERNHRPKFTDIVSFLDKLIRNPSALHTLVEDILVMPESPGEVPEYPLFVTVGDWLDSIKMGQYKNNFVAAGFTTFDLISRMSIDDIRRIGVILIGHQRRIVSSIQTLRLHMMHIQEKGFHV

[2] = molecular target: T2, Dual specificity mitogen-activated protein kinase kinase 6 (Homo sapiens) (UniProt P52564); assay: Selectivity interaction (KinomeScan (DiscoverX)) EUB0000607a MAP2K6; settings: at 10 µM
T2 sequence (whole entry): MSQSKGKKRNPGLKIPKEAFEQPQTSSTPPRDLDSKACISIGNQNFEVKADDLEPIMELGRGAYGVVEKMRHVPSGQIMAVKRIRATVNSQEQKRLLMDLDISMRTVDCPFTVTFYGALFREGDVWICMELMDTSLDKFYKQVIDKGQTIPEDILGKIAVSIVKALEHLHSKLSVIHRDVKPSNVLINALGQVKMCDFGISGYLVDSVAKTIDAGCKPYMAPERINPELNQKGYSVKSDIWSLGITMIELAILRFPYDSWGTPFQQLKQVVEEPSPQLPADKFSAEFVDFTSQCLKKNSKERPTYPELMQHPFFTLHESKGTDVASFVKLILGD

[3] = molecular target: Serine/threonine-protein kinase pim-1 (Homo sapiens, UniProt P11309); assay: Selectivity interaction (KinomeScan (DiscoverX)) EUB0000607a PIM1; settings: at 10 µM
[4] = molecular target: T3, Cyclin-G-associated kinase (Homo sapiens) (UniProt O14976); assay: Selectivity interaction (ActivX KiNativ screen (kinase selectivity in THP-1 cell lysates)) EUB0000639a GAK; format: subcellular; settings: lysate
T3 sequence (whole entry): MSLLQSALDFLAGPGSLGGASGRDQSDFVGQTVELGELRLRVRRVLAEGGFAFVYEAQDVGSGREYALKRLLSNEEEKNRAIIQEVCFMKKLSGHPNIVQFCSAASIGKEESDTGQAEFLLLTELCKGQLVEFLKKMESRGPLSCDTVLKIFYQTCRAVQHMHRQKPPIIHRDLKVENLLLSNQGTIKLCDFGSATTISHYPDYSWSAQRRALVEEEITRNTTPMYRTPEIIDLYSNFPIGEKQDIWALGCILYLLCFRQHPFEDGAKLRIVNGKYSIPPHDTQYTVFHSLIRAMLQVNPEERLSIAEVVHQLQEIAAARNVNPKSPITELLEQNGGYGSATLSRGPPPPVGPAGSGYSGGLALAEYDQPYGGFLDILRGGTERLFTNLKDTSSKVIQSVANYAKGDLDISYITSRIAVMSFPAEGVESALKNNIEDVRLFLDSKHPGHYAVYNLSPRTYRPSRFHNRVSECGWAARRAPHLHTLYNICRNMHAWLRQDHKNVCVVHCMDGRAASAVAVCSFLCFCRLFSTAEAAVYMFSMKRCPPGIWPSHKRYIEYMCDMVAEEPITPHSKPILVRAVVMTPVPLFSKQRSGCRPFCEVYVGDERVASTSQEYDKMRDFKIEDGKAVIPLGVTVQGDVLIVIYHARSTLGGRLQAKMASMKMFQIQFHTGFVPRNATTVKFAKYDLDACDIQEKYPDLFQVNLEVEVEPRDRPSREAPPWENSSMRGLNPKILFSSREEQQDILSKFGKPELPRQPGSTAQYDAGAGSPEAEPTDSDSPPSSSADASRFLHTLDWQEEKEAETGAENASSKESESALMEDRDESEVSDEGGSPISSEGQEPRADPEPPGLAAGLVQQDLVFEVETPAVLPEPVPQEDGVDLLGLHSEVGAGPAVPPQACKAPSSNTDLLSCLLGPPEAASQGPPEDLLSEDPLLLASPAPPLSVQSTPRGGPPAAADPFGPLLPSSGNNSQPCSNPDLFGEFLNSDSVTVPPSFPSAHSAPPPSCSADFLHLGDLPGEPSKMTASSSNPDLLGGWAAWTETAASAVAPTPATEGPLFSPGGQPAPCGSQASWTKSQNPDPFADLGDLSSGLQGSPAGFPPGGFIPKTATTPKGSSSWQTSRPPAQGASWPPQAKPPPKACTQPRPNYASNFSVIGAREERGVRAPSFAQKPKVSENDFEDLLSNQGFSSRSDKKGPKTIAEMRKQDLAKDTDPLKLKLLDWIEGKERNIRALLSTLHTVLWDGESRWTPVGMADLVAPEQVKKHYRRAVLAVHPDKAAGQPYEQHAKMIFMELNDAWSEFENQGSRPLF

[5] = molecular target: Cyclin-dependent kinase 4 (Homo sapiens, UniProt P11802); assay: Selectivity interaction (KinomeScan (DiscoverX)) EUB0001049a CDK4; settings: at 1 µM
Chain of Cyclin-dependent kinase 4 (P11802 whole entry): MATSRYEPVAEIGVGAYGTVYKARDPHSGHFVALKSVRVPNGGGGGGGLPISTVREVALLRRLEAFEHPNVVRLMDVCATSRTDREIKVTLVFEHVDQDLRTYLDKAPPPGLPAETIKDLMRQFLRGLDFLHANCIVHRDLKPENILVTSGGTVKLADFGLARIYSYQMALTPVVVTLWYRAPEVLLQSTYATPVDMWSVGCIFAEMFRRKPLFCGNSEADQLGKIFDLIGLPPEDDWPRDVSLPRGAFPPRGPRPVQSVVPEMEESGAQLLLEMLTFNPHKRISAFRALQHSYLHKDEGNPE

Chain of Serine/threonine-protein kinase pim-1 (P11309 whole entry, looked up): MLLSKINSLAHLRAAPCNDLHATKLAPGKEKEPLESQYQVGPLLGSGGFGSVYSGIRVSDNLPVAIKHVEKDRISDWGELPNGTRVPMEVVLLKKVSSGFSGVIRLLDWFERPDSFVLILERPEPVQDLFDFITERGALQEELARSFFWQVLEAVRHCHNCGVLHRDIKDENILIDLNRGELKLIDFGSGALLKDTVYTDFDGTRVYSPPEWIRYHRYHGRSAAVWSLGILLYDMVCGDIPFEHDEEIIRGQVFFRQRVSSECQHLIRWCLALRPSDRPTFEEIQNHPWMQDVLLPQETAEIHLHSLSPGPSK
Chain of D(2) dopamine receptor (P14416 whole entry): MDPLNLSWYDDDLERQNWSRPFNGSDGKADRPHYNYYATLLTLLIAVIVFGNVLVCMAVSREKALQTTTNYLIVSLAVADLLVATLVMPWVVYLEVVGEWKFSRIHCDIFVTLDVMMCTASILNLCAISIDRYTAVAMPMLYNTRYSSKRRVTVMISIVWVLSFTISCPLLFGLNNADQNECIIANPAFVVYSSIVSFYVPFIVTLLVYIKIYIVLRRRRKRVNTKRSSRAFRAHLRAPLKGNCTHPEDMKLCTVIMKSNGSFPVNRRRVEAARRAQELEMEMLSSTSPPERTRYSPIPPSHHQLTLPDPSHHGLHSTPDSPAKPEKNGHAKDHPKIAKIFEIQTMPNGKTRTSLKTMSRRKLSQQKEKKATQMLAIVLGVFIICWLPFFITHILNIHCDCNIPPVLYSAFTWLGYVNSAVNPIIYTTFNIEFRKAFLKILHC

Structure (SMILES): Nc1cnc(N2CCc3cc(S(=O)(=O)Nc4c(F)cc(Cl)cc4F)cc(N4CCCC4=O)c32)nc1 [TP-020n]
% of inhibition (D(2) dopamine receptor): -0.42%

Structure (SMILES): CNC(=O)Nc1ccc(-c2nc(N3CC4CCC(C3)O4)c3cnn(C4CCC5(CC4)OCCO5)c3n2)cc1
% of control [1]: 98%
% of control [2]: 95%
% of control [3]: 100%

% of inhibition ([4]; at 0.01 µM): 16.2%
% of inhibition ([4]; at 0.04 µM): 3.7%
% of inhibition ([4]; at 0.2 µM): -10%
% of inhibition ([4]; at 1 µM): 15.7%
% of inhibition ([4]; at 5 µM): 63.1%
Structure (SMILES): CC[C@@H]1[C@H](F)C(=O)N[C@@H]1COc1nccc2cc(C(N)=O)c(OC)cc12 [ZIMLOVISERTIB]

Structure (SMILES): COc1cc(Nc2nc(C)cc(-c3cnn4nc(OC)ccc34)n2)cc(C(F)(F)F)c1
% of control [5]: 70%
